Organism: Rattus norvegicus
Assay: Open TG-GATES - Regimen: Daily Repeat
Format: toxicity, organism-based, Sprague-Dawley
Parameters: regimen Daily Repeat, gender Male, age 6 weeks
Conditions: in vivo, po, 0 mg/kg, route gavage, dose level Control; for APTT / Bas / Eos / Fbg / Hb / Ht / Lym / MCH / MCHC / MCV / Mono / Neu / PT / Plat / RBC / Ret / WBC: tissue Blood
[1] = 72 h, tissue Kidney, time 3 day
[2] = 72 h, tissue Plasma, time 3 day

## C[C@](N)(Cc1ccc(O)c(O)c1)C(=O)O [METHYLDOPA]
72 h, time 3 day
  TERMINAL_BW: 207.1 g
  APTT: 15.9 s
  Bas: 0%
  Eos: 1.2%
  Fbg: 258.8 mg/dL
  Hb: 13.1 g/dL
  Ht: 38.4%
  Lym: 72.4%
  MCH: 21.5 pg
  MCHC: 34.1%
  MCV: 63.1 fL
  Mono: 3.4%
  Neu: 22.6%
  PT: 12.6 s
  Plat: 117.2 x10_4/uL
  RBC: 609 x10_4/ul
  Ret: 7.9%
  WBC: 72.1 x10_2/uL
[1]
  KIDNEY_L: 0.9 g
  KIDNEY_R: 0.9 g
  KIDNEY_TOTAL: 1.8 g
72 h, tissue Liver, time 3 day
  LIVER: 9.3 g
[2]
  A/G: 0.8
  ALP: 1855.2 IU/L
  ALT: 59.4 IU/L
  AST: 80.2 IU/L
  BUN: 14 mg/dL
  CRE: 0.2 mg/dL
  Ca: 11.1 mg/dL
  Cl: 106.6 meq/L
  DBIL: 0.008 mg/dL
  GLC: 172.8 mg/dL
  IP: 7.5 mg/dL
  K: 3.9 meq/L
  LDH: 52.2 IU/L
  Na: 144.6 meq/L
  PL: 129.8 mg/dL
  RALB: 2.6 g/dL
  TBIL: 0.056 mg/dL
  TC: 76.8 mg/dL
  TG: 61.4 mg/dL
  TP: 5.6 g/dL
  gamma-GTP: 1.2 IU/L
[…], time 7 day
  TERMINAL_BW: 238 g
  APTT: 17 s
  Bas: 0%
  Eos: 1.2%
  Fbg: 283.2 mg/dL
  Hb: 13.5 g/dL
  Ht: 39.4%
  Lym: 75%
  MCH: 21 pg
  MCHC: 34.2%
  MCV: 61.4 fL
  Mono: 3%
  Neu: 20.4%
  PT: 12 s
  Plat: 114.7 x10_4/uL
  RBC: 641.2 x10_4/ul
  Ret: 6%
  WBC: 75.9 x10_2/uL
[…], time 14 day
  TERMINAL_BW: 288.8 g
  APTT: 16.9 s
  Bas: 0%
  Eos: 1%
  Fbg: 290.4 mg/dL
  Hb: 13.8 g/dL
  Ht: 39.4%
  Lym: 76%
  MCH: 21.2 pg
  MCHC: 35%
  MCV: 60.4 fL
  Mono: 3.2%
  Neu: 19.6%
  PT: 14.1 s
  Plat: 102.2 x10_4/uL
  RBC: 652 x10_4/ul
  Ret: 4.8%
  WBC: 69.9 x10_2/uL
[…], time 28 day
  TERMINAL_BW: 375.3 g
  APTT: 19.6 s
  Bas: 0%
  Eos: 1.4%
  Fbg: 315.2 mg/dL
  Hb: 15 g/dL
  Ht: 43.3%
